From patent publication EP4596574A1, “GLP-1/GCG/GIP TRIPLE-RECEPTOR AGONIST AND USE THEREOF” (Sunshine Lake Pharma Co., Ltd., priority 2022, dated 2024)
Marks after values point to notes of the source that are not given here.

Assays:
[1] = Glucose tolerance assessment in normal C57BL/6 mice (Example 4); format: in vivo; conditions: for Blood glucose level (mM) 15 min / Blood glucose level (mM) 30 min / Blood glucose level (mM) 60 min / Blood glucose level (mM) 90 min / Blood glucose level (mM) 0 min / AUC0-90 min: 3 nmol/kg s.c. single dose, 24 h after administration; for Blood glucose level (mM) 15 min: 15 min after 2 g/kg glucose i.p.; for Blood glucose level (mM) 30 min: 30 min after 2 g/kg glucose i.p.; for Blood glucose level (mM) 60 min: 60 min after 2 g/kg glucose i.p.; for Blood glucose level (mM) 90 min: 90 min after 2 g/kg glucose i.p.; for Blood glucose level (mM) 0 min: basal before 2 g/kg glucose i.p.; for AUC0-90 min: blood glucose AUC, 2 g/kg glucose i.p.
Description: Twelve hours after the single administration, the animals were fasted for 12 hours and had free access to water. Blood was collected from the tail vein to determine the basal blood glucose level of each group of animals, and then 2 g/kg glucose solution was injected intraperitoneally. Blood glucose was tested at 15, 30, 60, and 90 min after glucose administration. The blood glucose concentration-time curve was drawn according to the blood glucose values measured at different time points, and the AUC0~90min of each dose group was calculated as shown in Table 4 and Figure 1. Table 4: Effects of single administration of HEC-PT74, HEC-PT75, HEC-PT77, HEC-PT78, HEC-PT80, and HEC-PT82 on glucose tolerance in normal C57 mice 24 h after administration

GIPR = biological target: T1, GIPR (Homo sapiens, UniProt P48546); experiment: In vitro cell activity, cAMP production in HEK293 cells expressing GIPR; format: cell-based
T1 construct: expressed in transfected cells; host or cells: HEK293 (HEK293-GIPR)
T1 sequence (P48546 22-466): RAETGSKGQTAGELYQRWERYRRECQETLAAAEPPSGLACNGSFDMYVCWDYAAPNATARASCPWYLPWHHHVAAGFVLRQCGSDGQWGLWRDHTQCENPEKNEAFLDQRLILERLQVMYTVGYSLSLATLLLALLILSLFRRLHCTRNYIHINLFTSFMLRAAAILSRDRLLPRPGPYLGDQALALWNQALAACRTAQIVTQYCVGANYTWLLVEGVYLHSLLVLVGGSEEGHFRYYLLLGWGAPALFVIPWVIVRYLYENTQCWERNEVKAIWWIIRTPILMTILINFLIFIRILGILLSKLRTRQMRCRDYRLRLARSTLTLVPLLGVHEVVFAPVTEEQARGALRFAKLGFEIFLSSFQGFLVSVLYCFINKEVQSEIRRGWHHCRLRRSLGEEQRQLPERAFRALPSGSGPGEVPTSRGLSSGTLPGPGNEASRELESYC
How it was run: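 cAMP accumulation is quantified by homogeneous TR-FRET (cAMP-d2 plus anti-cAMP cryptate) in GIPR-expressing HEK293 cells seeded from a 4×10^5 cells/mL suspension and treated with compound. The signal ratio is plotted against concentration and fitted to a four-parameter curve to give EC50.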

GLP-1R = biological target: T2, GLP-1R (Homo sapiens, UniProt P43220); experiment: In vitro cell activity, cAMP production in HEK293 cells expressing GLP-1R; format: cell-based
T2 construct: expressed in transfected cells; host or cells: HEK293 (HEK293-GLP-1R)
T2 sequence (P43220 24-463, species assumed): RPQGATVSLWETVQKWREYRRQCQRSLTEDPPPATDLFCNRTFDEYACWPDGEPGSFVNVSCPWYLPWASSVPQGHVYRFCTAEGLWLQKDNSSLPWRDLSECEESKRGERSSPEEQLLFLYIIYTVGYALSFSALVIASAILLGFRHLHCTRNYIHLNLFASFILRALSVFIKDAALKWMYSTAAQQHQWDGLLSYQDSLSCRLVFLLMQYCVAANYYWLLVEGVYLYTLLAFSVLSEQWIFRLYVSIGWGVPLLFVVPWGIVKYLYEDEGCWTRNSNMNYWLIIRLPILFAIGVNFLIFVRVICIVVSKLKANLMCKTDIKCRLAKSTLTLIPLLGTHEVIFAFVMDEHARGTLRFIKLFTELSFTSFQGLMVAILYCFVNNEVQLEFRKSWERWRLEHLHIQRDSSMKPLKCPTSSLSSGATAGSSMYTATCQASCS
How it was run: (§1)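 Cells were plated at 4×10^5 cells/mL, and detection reagents (cAMP-d2, anti-cAMP cryptate, 1:1) were incubated 1 h at room temperature in the dark or overnight at 4 °C.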

GCGR = biological target: T3, GCGR (Homo sapiens, UniProt P47871); experiment: In vitro cell activity, cAMP production in HEK293 cells expressing GCGR; format: cell-based
T3 construct: expressed in transfected cells; host or cells: HEK293 (HEK293-GCGR)
T3 sequence (P47871 26-477, species assumed): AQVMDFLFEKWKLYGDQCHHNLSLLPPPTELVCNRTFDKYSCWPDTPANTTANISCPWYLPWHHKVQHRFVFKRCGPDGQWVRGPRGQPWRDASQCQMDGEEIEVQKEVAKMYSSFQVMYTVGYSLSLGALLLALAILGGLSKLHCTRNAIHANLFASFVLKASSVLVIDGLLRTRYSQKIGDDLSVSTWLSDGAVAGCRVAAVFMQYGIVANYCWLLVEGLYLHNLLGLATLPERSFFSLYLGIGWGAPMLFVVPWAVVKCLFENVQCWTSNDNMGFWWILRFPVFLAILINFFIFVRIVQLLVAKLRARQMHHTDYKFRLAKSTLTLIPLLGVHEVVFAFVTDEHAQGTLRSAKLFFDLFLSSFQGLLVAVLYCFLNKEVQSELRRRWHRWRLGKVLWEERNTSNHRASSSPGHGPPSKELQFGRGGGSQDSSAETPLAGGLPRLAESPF
How it was run: as §1

[2] = In vivo efficacy evaluation in db/db mouse model (blood glucose); design: species or system db/db mice
Description: Blood glucose was tested before each administration.

Compound	Blood glucose level (mM) 15 min [1]	Blood glucose level (mM) 30 min [1]	Blood glucose level (mM) 60 min [1]	Blood glucose level (mM) 90 min [1]	Blood glucose level (mM) 0 min [1]	AUC0-90 min [1]	EC50 (GIPR)	EC50 (GLP-1R)	EC50 (GCGR)	further results
CC[C@H](C)[C@H](NC(=O)[C@H](Cc1ccccc1)NC(=O)[C@H](CCC(=O)O)NC(=O)[C@H](CCC(N)=O)NC(=O)[C@H](CCC(N)=O)NC(=O)[C@H](C)NC(=O)[C@H](CCCCNC(=O)COCCOCCNC(=O)CC[C@H](NC(=O)CCCCCCCCCCCCCCCCCCC(=O)O)C(=O)O)NC(=O)[C@H](CCC(=O)O)NC(=O)[C@H](CC(=O)O)NC(=O)[C@H](CC(C)C)NC(=O)[C@H](CC(C)C)NC(=O)[C@@H](NC(=O)[C@H](CO)NC(=O)[C@H](Cc1ccc(O)cc1)NC(=O)[C@H](CC(=O)O)NC(=O)[C@H](CO)NC(=O)[C@@H](NC(=O)[C@](C)(Cc1ccccc1F)NC(=O)[C@@H](NC(=O)CNC(=O)[C@H](CCC(N)=O)NC(=O)C(C)(C)NC(=O)[C@@H](N)Cc1ccc(O)cc1)[C@@H](C)O)[C@@H](C)O)[C@@H](C)CC)C(=O)N[C@@H](CCC(=O)O)C(=O)N[C@@H](Cc1c[nH]c2ccccc12)C(=O)N[C@@H](CC(C)C)C(=O)N[C@@H](CC(C)C)C(=O)N[C@@H](CCC(=O)O)C(=O)NCC(=O)NCC(=O)N1CCC[C@H]1C(=O)N[C@@H](CO)C(=O)N[C@@H](CO)C(=O)NCC(=O)N[C@@H](C)C(=O)N1CCC[C@H]1C(=O)N1CCC[C@H]1C(=O)N1CCC[C@H]1C(=O)N[C@@H](CO)C(=O)O [HEC-PT78]	15.8 ± 2.6 mM	12.0 ± 2.5 mM	9.2 ± 1.5 mM	7.3 ± 0.7 mM	4.6 ± 0.6 mM	927.1±135.2^a	0.215 nM	0.532 nM	4.5 nM	–
CC[C@H](C)[C@H](NC(=O)[C@H](Cc1ccccc1)NC(=O)[C@H](CCC(=O)O)NC(=O)[C@H](CCCNC(=N)N)NC(=O)[C@H](CCC(N)=O)NC(=O)[C@H](C)NC(=O)[C@H](CCCCNC(=O)COCCOCCNC(=O)CC[C@H](NC(=O)CCCCCCCCCCCCCCCCC(=O)O)C(=O)O)NC(=O)[C@H](CCC(=O)O)NC(=O)[C@H](CC(=O)O)NC(=O)[C@H](CC(C)C)NC(=O)[C@H](CC(C)C)NC(=O)[C@@H](NC(=O)[C@H](CO)NC(=O)[C@H](Cc1ccc(O)cc1)NC(=O)[C@H](CC(=O)O)NC(=O)[C@H](CO)NC(=O)[C@@H](NC(=O)[C@](C)(Cc1ccccc1F)NC(=O)[C@@H](NC(=O)CNC(=O)[C@H](Cc1c[nH]cn1)NC(=O)C(C)(C)NC(=O)[C@@H](N)Cc1ccc(O)cc1)[C@@H](C)O)[C@@H](C)O)[C@@H](C)CC)C(=O)N[C@@H](CCC(=O)O)C(=O)N[C@@H](Cc1c[nH]c2ccccc12)C(=O)N[C@@H](CC(C)C)C(=O)N[C@@H](CC(C)C)C(=O)N[C@@H](C)C(=O)NCC(=O)NCC(=O)N1CCC[C@H]1C(=O)N[C@@H](CO)C(=O)N[C@@H](CO)C(=O)NCC(=O)N[C@@H](C)C(=O)N1CCC[C@H]1C(=O)N1CCC[C@H]1C(=O)N1CCC[C@H]1C(=O)N[C@@H](CO)C(=O)O [HEC-PT74]	14.0 ± 4.3 mM	10.0 ± 3.1 mM	8.4 ± 2.5 mM	7.1 ± 2.3 mM	4.6 ± 1.0 mM	827.3±234.6^a	0.0043 nM	0.104 nM	0.319 nM	blood glucose after administration ([2]; db/db mice, 10 nmol/kg): significantly reduce blood glucose; Random blood glucose (mM) D0 ([2]; db/db mice, 10 nmol/kg s.c. once every three days, D0 (before first dose)): 25.5 ± 4.7 mM; Random blood glucose (mM) D3 ([2]; db/db mice, 10 nmol/kg s.c. once every three days, D3): 13.5 ± 4.4 mM; Random blood glucose (mM) D4 ([2]; db/db mice, 10 nmol/kg s.c. once every three days, D4): 20.0 ± 2.9 mM; Random blood glucose (mM) D5 ([2]; db/db mice, 10 nmol/kg s.c. once every three days, D5): 22.1 ± 3.9 mM; Random blood glucose (mM) D6 ([2]; db/db mice, 10 nmol/kg s.c. once every three days, D6): 21.1 ± 3.0 mM; Random blood glucose (mM) D7 ([2]; db/db mice, 10 nmol/kg s.c. once every three days, D7): 22.7 ± 2.9 mM; Random blood glucose (mM) D10 ([2]; db/db mice, 10 nmol/kg s.c. once every three days, D10): 12.1 ± 2.1 mM; Random blood glucose (mM) D13 ([2]; db/db mice, 10 nmol/kg s.c. once every three days, D13): 12.5 ± 2.7 mM; Random blood glucose (mM) D16 ([2]; db/db mice, 10 nmol/kg s.c. once every three days, D16): 12.1 ± 2.9 mM; Random blood glucose (mM) D19 ([2]; db/db mice, 10 nmol/kg s.c. once every three days, D19): 16.0 ± 2.3 mM; Random blood glucose (mM) D22 ([2]; db/db mice, 10 nmol/kg s.c. once every three days, D22): 13.9 ± 3.2 mM; Random blood glucose (mM) D25 ([2]; db/db mice, 10 nmol/kg s.c. once every three days, D25): 16.3±4.2^a mM; Random blood glucose (mM) 6 h ([2]; db/db mice, 10 nmol/kg s.c., 6 h): 16.7 ± 5.1 mM; Random blood glucose (mM) 24 h ([2]; db/db mice, 10 nmol/kg s.c., 24 h): 7.3 ± 1.6 mM; Random blood glucose (mM) 48 h ([2]; db/db mice, 10 nmol/kg s.c., 48 h): 9.2 ± 2.9 mM; time at which blood glucose levels reached the lowest level ([2]; db/db mice, 10 nmol/kg, after administration): about 24 hours; blood glucose lowering after long-term administration compared with LY3298176 ([2]; db/db mice, long-term repeated administration): not inferior to the positive control LY3298176; blood glucose reducing effect after administration compared with LY3298176 ([2]; db/db mice, same dose 10 nmol/kg): slightly better than the positive control LY3298176; blood glucose level after long-term administration ([2]; type II diabetes model db/db mice): significantly improve the blood glucose level
CC[C@H](C)[C@H](NC(=O)[C@H](Cc1ccccc1)NC(=O)[C@H](C)NC(=O)[C@H](CCCNC(=N)N)NC(=O)[C@H](CCC(N)=O)NC(=O)[C@H](C)NC(=O)[C@H](CCCCNC(=O)COCCOCCNC(=O)CC[C@H](NC(=O)CCCCCCCCCCCCCCCCC(=O)O)C(=O)O)NC(=O)[C@H](CCC(=O)O)NC(=O)[C@H](CC(=O)O)NC(=O)[C@H](CC(C)C)NC(=O)[C@H](CC(C)C)NC(=O)[C@@H](NC(=O)[C@H](CO)NC(=O)[C@H](Cc1ccc(O)cc1)NC(=O)[C@H](CC(=O)O)NC(=O)[C@H](CO)NC(=O)[C@@H](NC(=O)[C@](C)(Cc1ccccc1F)NC(=O)[C@@H](NC(=O)CNC(=O)[C@H](Cc1c[nH]cn1)NC(=O)C(C)(C)NC(=O)[C@@H](N)Cc1ccc(O)cc1)[C@@H](C)O)[C@@H](C)O)[C@@H](C)CC)C(=O)N[C@@H](CCC(=O)O)C(=O)N[C@@H](Cc1ccc(O)cc1)C(=O)N[C@@H](CC(C)C)C(=O)N[C@@H](CC(C)C)C(=O)N[C@@H](C)C(=O)NCC(=O)NCC(=O)N1CCC[C@H]1C(=O)N[C@@H](CO)C(=O)N[C@@H](CO)C(=O)NCC(=O)N[C@@H](C)C(=O)N1CCC[C@H]1C(=O)N1CCC[C@H]1C(=O)N1CCC[C@H]1C(=O)N[C@@H](CO)C(=O)O [HEC-PT75]	11.1 ± 3.1 mM	8.9 ± 3.1 mM	7.4 ± 2.0 mM	5.6 ± 0.7 mM	4.0 ± 0.4 mM	682.0±166.7^a	0.0377 nM	0.108 nM	0.0672 nM	improvement of glucose tolerance compared with LY3298176 ([1]; 24 hours after a single administration, 3 nmol/kg): more effective in improving glucose tolerance than the positive control LY3298176
